The source of these data is article PMC8933014, “Diversely substituted sulfamides for fragment-based drug discovery of carbonic anhydrase inhibitors: synthesis and inhibitory profile” (Journal of Enzyme Inhibition and Medicinal Chemistry, 2022).

Test in all cases: stopped-flow CO2 hydration
Assay type in all cases: biochemical

Assay [1] concerns the target T1, hCA IX (Homo sapiens, UniProt Q16790).
T1 construct: gene CA9; recombinant, obtained in-house
To be noted: read-out: Ki (nM)^b / hCA IX. The text has this: stopped-flow CO2 hydration on hCA IX

Assay [2] has as its target T2, hCA I (Homo sapiens, UniProt P00915).
T2 construct: gene CA1; recombinant, obtained in-house
Particulars: read-out: Ki (nM)^b / hCA I. The text has this: stopped-flow CO2 hydration on hCA I

Assay [3] addresses T3, hCA II (Homo sapiens, UniProt P00918).
T3 construct: gene CA2; recombinant, obtained in-house
Particulars: read-out: Ki (nM)^b / hCA II. The text has this: stopped-flow CO2 hydration on hCA II

In assay [4] the target is T4, hCA XII (Homo sapiens, UniProt O43570).
T4 construct: gene CA12; recombinant, obtained in-house
T4 sequence (O43570 25-354): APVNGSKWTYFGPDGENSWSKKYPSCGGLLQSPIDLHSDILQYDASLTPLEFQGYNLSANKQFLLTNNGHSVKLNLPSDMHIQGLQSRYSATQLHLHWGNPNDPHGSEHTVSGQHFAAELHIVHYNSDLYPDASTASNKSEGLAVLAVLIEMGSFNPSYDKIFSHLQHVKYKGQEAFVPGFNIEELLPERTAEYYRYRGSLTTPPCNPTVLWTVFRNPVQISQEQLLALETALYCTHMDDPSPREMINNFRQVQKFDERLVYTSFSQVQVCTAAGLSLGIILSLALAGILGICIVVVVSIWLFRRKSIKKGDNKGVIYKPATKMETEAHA
Particulars: read-out: Ki (nM)^b / hCA XII. The text has this: stopped-flow CO2 hydration on hCA XII

Counter-ions that a name gives are not always drawn.

T2 sequence (P00915 2-261): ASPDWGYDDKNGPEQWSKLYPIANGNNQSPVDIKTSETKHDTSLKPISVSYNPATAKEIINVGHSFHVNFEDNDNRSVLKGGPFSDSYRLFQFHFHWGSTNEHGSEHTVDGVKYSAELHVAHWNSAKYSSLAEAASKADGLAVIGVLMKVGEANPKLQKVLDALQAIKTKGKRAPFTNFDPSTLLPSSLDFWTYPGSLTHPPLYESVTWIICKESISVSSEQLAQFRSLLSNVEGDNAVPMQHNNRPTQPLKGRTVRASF

In the case of `NS(=O)(=O)N1CCC(O)CC1` [2a, 4-Hydroxypiperidine-1-sulphonamide], the Ki was 54.2 nM in assay [1], 75.6 nM in assay [2], 42.7 nM in assay [3] and 25.3 nM in assay [4].
On to `CN1CCN(S(N)(=O)=O)CC1` [2b, 4-Methylpiperazine-1-sulphonamide], for which the Ki in assay [1] amounted to 58.6 nM; in assay [2] it was 64.2 nM; in assay [3], 32.1 nM; in assay [4], 52.5 nM.
For the molecule `NS(=O)(=O)NCc1ccc(F)cc1` [2c, N-(4-Fluorobenzyl)sulfamide], the Ki in assay [1] is 30.7 nM; in assay [2], 126 nM; in assay [3], 70.5 nM; in assay [4], 51.7 nM.
In the case of `NS(=O)(=O)NC1CCCc2ccccc21` (centres unmarked) [2d, N-(1,2,3,4-Tetrahydronaphthalen-1-yl)sulfamide], the Ki came to 36.8 nM in assay [1], 121 nM in assay [2], 42.6 nM in assay [3] and 59.7 nM in assay [4].
The like results for `NS(=O)(=O)NCC1CCCO1` (centres unmarked) [2e, N-((tetrahydrofuran-2-yl)methyl)sulfamide] were, in that order, 92.7 nM, 38.4 nM, 63.4 nM and 98 nM.
`COC(=O)C1CCCN1S(N)(=O)=O` (centres unmarked) [2f, Methyl sulfamoylprolinate]: the Ki was found to be 78.2 nM in assay [1], 52.1 nM in assay [2], 69.8 nM in assay [3] and 83.6 nM in assay [4].
As to `CN1CCC(NS(N)(=O)=O)CC1` [2g, (1-Methylpiperidin-4-yl)sulfamide], the Ki in assay [1] was found to be 63.2 nM; in assay [2], 89.7 nM; in assay [3], 52.1 nM; in assay [4], 38.4 nM.
Turning to `NS(=O)(=O)N1CCC(c2ccccc2)CC1` [2h, 4-Phenylpiperidine-1-sulphonamide], the Ki was 58.2 nM in assay [1], 359 nM in assay [2], 120 nM in assay [3] and 96.7 nM in assay [4].
For the molecule `CN(C)CCN(Cc1ccccc1)S(N)(=O)=O` [2i, Benzyl (2-(dimethylamino)ethyl)sulfamide], the Ki in assay [1] amounted to 65.1 nM; in assay [2], 28.4 nM; in assay [3], 39.8 nM; in assay [4] it was 19.7 nM.
With `NS(=O)(=O)NCc1cccnc1` [2j, (Pyridin-3-ylmethyl)sulfamide], the Ki is 29.5 nM in assay [1], 98.5 nM in assay [2], 90.2 nM in assay [3] and 16.5 nM in assay [4].
`NS(=O)(=O)NCc1cccs1` [2k, (Thiophen-2-ylmethyl) sulfamide]: the Ki in assay [1] was found to be 73.2 nM; in assay [2], 22.6 nM; in assay [3] it was 48.2 nM; in assay [4] it was 66.8 nM.
On to `CCN(CC)CCN(C)S(N)(=O)=O` [2l, (2-(Diethylamino)ethyl)(methyl)sulfamide], for which the Ki in assay [1] worked out at 126 nM; in assay [2], 59.6 nM; in assay [3], 92.3 nM; in assay [4], 72.5 nM.
Consider `CCOC(=O)C1CCN(S(N)(=O)=O)CC1` [2m, Ethyl 1-sulfamoylpiperidine-4-carboxylate], for which the Ki worked out at 58.1 nM in assay [1], 62.8 nM in assay [2], 42.8 nM in assay [3] and 25.9 nM in assay [4].
In the case of `NS(=O)(=O)N1CCC(N2CCCCC2)CC1` [2n, [1,4'-Bipiperidine]-1'-sulphonamide], the Ki was 72.5 nM in assay [1], 497 nM in assay [2], 99.3 nM in assay [3] and 35.1 nM in assay [4].
The like results for `NS(=O)(=O)N1CCOCC1` [2o, Morpholine-4-sulphonamide] were, in that order, 82.1 nM, 59.2 nM, 66.9 nM and 101 nM.
As for `NC(=O)C1CCN(S(N)(=O)=O)CC1` [2p, 1-Sulfamoylpiperidine-4-carboxamide], the Ki amounted to 46.2 nM in assay [1], 88.2 nM in assay [2], 59.4 nM in assay [3] and 40.2 nM in assay [4].
`NS(=O)(=O)N1CCNCC1` [2q, Piperazine-1-sulphonamide hydrochloride]: the Ki amounted to 78.2 nM in assay [1], 68.9 nM in assay [2], 52.9 nM in assay [3] and 100 nM in assay [4].
As to `CC1Cc2ccccc2N1S(N)(=O)=O` (centres unmarked) [2r, 2-Methylindoline-1-sulphonamide], the Ki in assay [1] came out at 94.7 nM; in assay [2], 868 nM; in assay [3], 316 nM; in assay [4] it was 116 nM.
Take `NS(=O)(=O)Nc1ncccn1` [2s, N-(Pyrimidin-2-yl)sulfamide]: the Ki in assay [1] was determined as 68 nM; in assay [2], 29.6 nM; in assay [3], 59.4 nM; in assay [4], 39.3 nM.
For the molecule `NS(=O)(=O)N1CCCc2ccccc21` [2t, 3,4-Dihydroquinoline-1(2H)-sulphonamide], the Ki in assay [1] was determined as 34.2 nM; in assay [2], 231 nM; in assay [3], 89.5 nM; in assay [4], 114 nM.
With `NS(=O)(=O)Nc1cccc2ccccc12` [2u, N-(Naphthalen-1-yl)sulfamide], the Ki in assay [1] came out at 25.4 nM; in assay [2] it was 160 nM; in assay [3], 56.7 nM; in assay [4], 72.3 nM.
Taken in the same sequence, the figures for `NS(=O)(=O)N1CCc2ccccc21` [2v, Indoline-1-sulphonamide] were 102 nM, 723 nM, 472 nM and 95.7 nM.
For the molecule `NS(=O)(=O)Nc1ccc(F)cc1F` [2w, N-(2,4-Difluorophenyl)sulfamide], the Ki in assay [1] was 38.5 nM; in assay [2] it was 45.7 nM; in assay [3], 76.3 nM; in assay [4], 224 nM.
